Measurements published in US12077503B2, “Substituted cyclic amides and their use as herbicides” (FMC CORPORATION, priority 2015, dated 2024).

Assays:
Assay type in all cases: in vivo
[1] = test system: giant foxtail (Setaria faberii); assay: Test A preemergence; conditions: Setaria faberi, pre-emergence, 240 h, preemergence, 0 to 100 scale where 0 is no effect and 100 is complete control, read-out: Foxtail, Giant plant response rating; for pest or weed control at 125 g/ha: 125 g ai/ha, approx. 10 d; for pest or weed control at 500 g/ha: 500 g ai/ha
How it was run: (§1)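 Compounds were formulated in a non-phytotoxic solvent mixture with surfactant and applied as a preemergence directed soil spray after seeding, or sprayed postemergence over plants 2 to 10 cm tall at the one- to two-leaf stage. Evaluation after about 10 d compared treated with untreated controls, using a scale from 0 (no effect) to 100 (complete control).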

[2] = test system: Galium (catchweed bedstraw, Galium aparine); assay: Test A postemergence; conditions: Galium, post-emergence, 240 h, postemergence, read-out: Galium plant response rating; for pest or weed control at 125 g/ha: 125 g ai/ha, visual injury on 0 to 100 scale (0 no effect, 100 complete control), approx. 10 d; for pest or weed control at 500 g/ha: 500 g ai/ha, 0 to 100 scale, 0 is no effect, 100 is complete control
How it was run: as §1

Kochia (Kochia scoparia) = assay: Test A postemergence; conditions: Bassia scoparia, post-emergence, 240 h, postemergence, read-out: Kochia plant response rating; for pest or weed control at 125 g/ha: 125 g ai/ha, visual injury on 0 to 100 scale (0 no effect, 100 complete control), approx. 10 d; for pest or weed control at 500 g/ha: 500 g ai/ha, 0 to 100 scale, 0 is no effect, 100 is complete control
How it was run: as §1

[3] = test system: barnyardgrass (Echinochloa crus-galli); assay: Test A postemergence; conditions: Echinochloa crus-galli, post-emergence, 240 h, postemergence, read-out: Barnyardgrass plant response rating; for pest or weed control at 125 g/ha: 125 g ai/ha, visual injury on 0 to 100 scale (0 no effect, 100 complete control), approx. 10 d; for pest or weed control at 500 g/ha: 500 g ai/ha, 0 to 100 scale, 0 is no effect, 100 is complete control
How it was run: as §1

[4] = test system: blackgrass (Alopecurus myosuroides); assay: Test A postemergence; conditions: Alopecurus myosuroides, post-emergence, 240 h, postemergence, read-out: Blackgrass plant response rating; for pest or weed control at 125 g/ha: 125 g ai/ha, visual injury on 0 to 100 scale (0 no effect, 100 complete control), approx. 10 d; for pest or weed control at 500 g/ha: 500 g ai/ha, 0 to 100 scale, 0 is no effect, 100 is complete control
How it was run: as §1

corn (Zea mays) = assay: Test A postemergence; conditions: Zea mays, post-emergence, 240 h, postemergence, read-out: Corn plant response rating; for plant injury at 125 g/ha: 125 g ai/ha, visual injury on 0 to 100 scale (0 no effect, 100 complete control), approx. 10 d; for plant injury at 500 g/ha: 500 g ai/ha, 0 to 100 scale, 0 is no effect, 100 is complete control
How it was run: as §1

[5] = test system: giant foxtail (Setaria faberii); assay: Test A postemergence; conditions: Setaria faberi, post-emergence, 240 h, postemergence, read-out: Foxtail, Giant plant response rating; for pest or weed control at 125 g/ha: 125 g ai/ha, visual injury on 0 to 100 scale (0 no effect, 100 complete control), approx. 10 d; for pest or weed control at 500 g/ha: 500 g ai/ha, 0 to 100 scale, 0 is no effect, 100 is complete control
How it was run: as §1

[6] = test system: pigweed (Amaranthus retroflexus); assay: Test A postemergence; conditions: Amaranthus retroflexus, post-emergence, 240 h, postemergence, read-out: Pigweed plant response rating; for pest or weed control at 125 g/ha: 125 g ai/ha, visual injury on 0 to 100 scale (0 no effect, 100 complete control), approx. 10 d; for pest or weed control at 500 g/ha: 500 g ai/ha, 0 to 100 scale, 0 is no effect, 100 is complete control
How it was run: as §1

[7] = test system: ragweed (common ragweed, Ambrosia elatior); assay: Test A postemergence; conditions: Ambrosia artemisiifolia, post-emergence, 240 h, postemergence, read-out: Ragweed plant response rating; for pest or weed control at 125 g/ha: 125 g ai/ha, visual injury on 0 to 100 scale (0 no effect, 100 complete control), approx. 10 d; for pest or weed control at 500 g/ha: 500 g ai/ha, 0 to 100 scale, 0 is no effect, 100 is complete control
How it was run: as §1

[8] = test system: ryegrass, Italian (Italian ryegrass, Lolium multiflorum); assay: Test A postemergence; conditions: Lolium multiflorum, post-emergence, 240 h, postemergence, read-out: Ryegrass, Italian plant response rating; for pest or weed control at 125 g/ha: 125 g ai/ha, visual injury on 0 to 100 scale (0 no effect, 100 complete control), approx. 10 d; for pest or weed control at 500 g/ha: 500 g ai/ha, 0 to 100 scale, 0 is no effect, 100 is complete control
How it was run: as §1

[9] = test system: wheat (Triticum aestivum); assay: Test A postemergence; conditions: Triticum aestivum, post-emergence, 240 h, postemergence, read-out: Wheat plant response rating; for plant injury at 125 g/ha: 125 g ai/ha, visual injury on 0 to 100 scale (0 no effect, 100 complete control), approx. 10 d; for plant injury at 500 g/ha: 500 g ai/ha, 0 to 100 scale, 0 is no effect, 100 is complete control
How it was run: as §1

[10] = test system: barnyardgrass (Echinochloa crus-galli); assay: Test B flooded paddy test; conditions: Echinochloa crus-galli, 250 g ai/ha, Flood; 0 to 100 scale where 0 is no effect and 100 is complete control; read-out: Barnyardgrass plant response rating
How it was run: (§2)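 Greenhouse paddy pots with 2-leaf stage plants received compound by direct addition to floodwater 3 cm deep, kept at that level. Scored visually at 13–15 d versus controls (0 no effect; 100 complete control).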

[11] = test system: ducksalad (Heteranthera limosa); assay: Test B flooded paddy test; conditions: Heteranthera limosa, 250 g ai/ha, Flood; 0 to 100 scale where 0 is no effect and 100 is complete control; read-out: Ducksalad plant response rating
How it was run: as §2

rice (Oryra sativa) = assay: Test B flooded paddy test; conditions: Oryza sativa, 250 g ai/ha, Flood; 0 to 100 scale where 0 is no effect and 100 is complete control; read-out: Rice plant response rating
How it was run: as §2

[12] = test system: sedge, umbrella (small-flower umbrella sedge, Cyperus difformis); assay: Test B flooded paddy test; conditions: Cyperus difformis, 250 g ai/ha, Flood; 0 to 100 scale where 0 is no effect and 100 is complete control; read-out: Sedge, Umbrella plant response rating
How it was run: as §2

| SMILES | pest or weed control at 125 g/ha [1] [%] | pest or weed control at 500 g/ha [1] [%] | pest or weed control at 125 g/ha [2] [%] | pest or weed control at 500 g/ha [2] [%] | pest or weed control at 125 g/ha (Kochia (Kochia scoparia)) [%] | pest or weed control at 500 g/ha (Kochia (Kochia scoparia)) [%] | pest or weed control at 125 g/ha [3] [%] | pest or weed control at 500 g/ha [3] [%] | pest or weed control at 125 g/ha [4] [%] | pest or weed control at 500 g/ha [4] [%] | plant injury at 125 g/ha (corn (Zea mays)) [%] | plant injury at 500 g/ha (corn (Zea mays)) [%] | pest or weed control at 125 g/ha [5] [%] | pest or weed control at 500 g/ha [5] [%] | pest or weed control at 125 g/ha [6] [%] | pest or weed control at 500 g/ha [6] [%] | pest or weed control at 125 g/ha [7] [%] | pest or weed control at 500 g/ha [7] [%] | pest or weed control at 125 g/ha [8] [%] | pest or weed control at 500 g/ha [8] [%] | other results |
| --- | --- | --- | --- | --- | --- | --- | --- | --- | --- | --- | --- | --- | --- | --- | --- | --- | --- | --- | --- | --- | --- |
| O=C1NC[C@H](c2csc(C(F)F)c2)[C@H]1C(=O)Nc1cccc(F)c1F [Compound 1119] | 50 | 80 | 40 | 50 | 40 | 60 | 80 | 90 | 50 | 70 | 20 | 30 | 30 | 70 | 0 | 20 | 20 | 60 | 30 | 30 | plant injury at 125 g/ha [9]: 20%; plant injury at 500 g/ha [9]: 50%; pest or weed control at 250 g/ha [10]: 60%; pest or weed control at 250 g/ha [11]: 100%; pest or weed control at 250 g/ha (rice (Oryra sativa)): 20%; pest or weed control at 250 g/ha [12]: 50% |
| CN1C[C@H](c2cc(C(F)F)cs2)[C@@H](C(=O)Nc2cccc(F)c2F)C1=O [Compound 1121] | 90 | 100 | 50 | 60 | 50 | 70 | 90 | 90 | 40 | 60 | 50 | 90 | 90 | 90 | 20 | 40 | 20 | 40 | 40 | 70 | plant injury at 125 g/ha [9]: 30%; plant injury at 500 g/ha [9]: 60%; pest or weed control at 250 g/ha [10]: 70%; pest or weed control at 250 g/ha [11]: 100%; pest or weed control at 250 g/ha (rice (Oryra sativa)): 10%; pest or weed control at 250 g/ha [12]: 0% |
| CCc1cc(CC)cc([C@H]2CNC(=O)[C@@H]2C(=O)Nc2cccc(F)c2F)c1 [Compound 1139] | 90 | 90 | 50 | 60 | 0 | 0 | 60 | 90 | 40 | 60 | 60 | 80 | 40 | 70 | 0 | 0 | 0 | 40 | 40 | 50 | plant injury at 125 g/ha [9]: 50%; plant injury at 500 g/ha [9]: 70%; pest or weed control at 250 g/ha [10]: 0%; pest or weed control at 250 g/ha [11]: 30%; pest or weed control at 250 g/ha (rice (Oryra sativa)): 20%; pest or weed control at 250 g/ha [12]: 0% |
